The test has as its system Trichophyton mentagrophytes. Put plainly: effectiveness in vitro against human-pathogenic fungi (fungistatic). The conditions noted are these: Milieu d'epreuve according to Sabouraud, 28° C. It is filed as cell-based. As to the method:
I. effectiveness in vitro against human-pathogenic fungi
1. Trichophyton mentagrophytes:
The test medium was Milieu d'epreuve according to Sabouraud, incubation temperature: 28° C.

Structures are written as SMILES.

With `c1ccc(C(c2ccccc2)(n2ccnc2)n2ccnc2)cc1` [compound a), bis-imidazolyl-bis-phenylmethane], the MIC (usually the lowest concentration found to suppress growth) was less than 4 µg/mL. Then `Clc1ccc(C(c2ccccc2)(n2ccnc2)n2ccnc2)cc1` [compound b), bis-imidazolyl-4-chlorophenyl-phenylmethane], with less than 4 µg/mL; and `Fc1ccc(C(c2ccccc2)(n2ccnc2)n2ccnc2)cc1` [compound c), bis-imidazolyl-4-fluorophenyl-phenylmethane], with less than 4 µg/mL. For `Fc1ccc(C(c2ccccc2F)(n2ccnc2)n2ccnc2)cc1` [compound d), bis-imidazolyl-2,4'-difluoro-diphenylmethane] the value was less than 4 µg/mL; for `Clc1ccccc1C(c1ccccc1)(n1ccnc1)n1ccnc1` [compound e), bis-imidazolyl-2-chlorophenyl-phenylmethane], less than 4 µg/mL. As to `Clc1cccc(C(c2ccccc2)(n2ccnc2)n2ccnc2)c1` [compound f), bis-imidazolyl-3-chlorophenyl-phenylmethane], the MIC was less than 4 µg/mL. For `N#Cc1ccc(C(c2ccccc2)(n2ccnc2)n2ccnc2)cc1` [compound g), bis-imidazolyl-4-cyanophenyl-phenylmethane] the value was less than 40 µg/mL.
